# Measured values reported in PMC10708623, “The Synergistic Effect of GH13 and GH57 GBEs of Petrotoga mobilis Results in α-Glucan Molecules with a Higher Branch Density” (Polymers, 2023).
# Molecular target: T1, PmGBE57 (Petrotoga mobilis, UniProt A9BH92)
# T1 construct: gene Pmob_0588; full-length codon-optimized gene in pET28a(+), C-terminal His-tag, expressed in E. coli BL21(DE3), Ni-NTA purified
# T1 sequence (A9BH92 1-538): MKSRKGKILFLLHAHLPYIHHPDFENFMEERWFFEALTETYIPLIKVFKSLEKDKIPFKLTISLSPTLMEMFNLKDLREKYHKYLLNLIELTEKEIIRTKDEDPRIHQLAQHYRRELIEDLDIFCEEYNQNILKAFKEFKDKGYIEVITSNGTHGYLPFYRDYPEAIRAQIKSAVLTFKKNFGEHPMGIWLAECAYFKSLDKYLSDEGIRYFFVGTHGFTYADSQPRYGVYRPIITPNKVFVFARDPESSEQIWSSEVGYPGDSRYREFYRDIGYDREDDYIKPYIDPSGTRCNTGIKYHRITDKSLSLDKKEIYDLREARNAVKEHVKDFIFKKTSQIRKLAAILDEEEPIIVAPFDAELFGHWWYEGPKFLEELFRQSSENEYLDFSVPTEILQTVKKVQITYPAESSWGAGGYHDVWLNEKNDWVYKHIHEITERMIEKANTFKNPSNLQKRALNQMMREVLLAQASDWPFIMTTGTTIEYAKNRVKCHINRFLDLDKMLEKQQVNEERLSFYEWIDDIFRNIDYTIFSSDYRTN
# Test: HPAEC-PAD chain length analysis after […] h
# Type: biochemical
# Conditions: 1 U^B/g substrate, hydrolysis only, reagent also contains DP6
smiles,measurement,value
"OC[C@H]1O[C@H](O[C@H]2[C@H](O)[C@@H](O)[C@@H](O[C@H]3[C@H](O)[C@@H](O)[C@@H](O[C@H]4[C@H](O)[C@@H](O)[C@@H](O[C@H]5[C@H](O)[C@@H](O)[C@@H](O[C@H]6[C@H](O)[C@@H](O)[C@@H](O[C@H]7[C@H](O)[C@@H](O)C(O)O[C@@H]7CO)O[C@@H]6CO)O[C@@H]5CO)O[C@@H]4CO)O[C@@H]3CO)O[C@@H]2CO)[C@H](O)[C@@H](O)[C@@H]1O (stereo partly shown) [MD7, maltoheptaose]",HPAEC-PAD chain length analysis after 24 h,PmGBE57 showed the ability to utilize the short DP7 chains
